Laboratory results taken from PubChem BioAssay (NCI).
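Assay format: 96-well plates, 48-hour exposure. TGI marks complete inhibition of growth.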

Tests used:
Assay in all cases: NCI-60 cell line screen, 48 h
HL-60(TB) leukemia = test system: HL-60(TB) leukemia
IGROV1 ovarian = test system: IGROV1 ovarian
KM12 colon = test system: KM12 colon
MALME-3M melanoma = test system: MALME-3M melanoma
NCI-H23 lung = test system: NCI-H23 lung
OVCAR-3 ovarian = test system: OVCAR-3 ovarian
OVCAR-5 ovarian = test system: OVCAR-5 ovarian
786-0 renal = test system: 786-0 renal
A498 renal = test system: A498 renal
RPMI-8226 leukemia = test system: RPMI-8226 leukemia

Compound	TGI (HL-60(TB) leukemia)	TGI (IGROV1 ovarian)	TGI (KM12 colon)	TGI (MALME-3M melanoma)	TGI (NCI-H23 lung)	TGI (OVCAR-3 ovarian)	TGI (OVCAR-5 ovarian)	TGI (786-0 renal)	TGI (A498 renal)	TGI (RPMI-8226 leukemia)
O=C(N/N=C/c1cc(Br)cc(Br)c1[O-])c1ccccc1O.O=C(N/N=C/c1cc(Br)cc(Br)c1[O-])c1ccccc1O.[Cu+2]	0.359 µM	1.06 µM	1.98 µM	1.35 µM	0.484 µM	0.702 µM	2.03 µM			
COc1ccc2c(cnc3c4cc(OC)c(OC)cc4ccc23)c1	> 100 µM	> 100 µM	> 100 µM	> 100 µM	> 100 µM	> 100 µM	> 100 µM	> 100 µM	> 100 µM	
NNC(=O)CSc1nc2ccccc2c(=O)n1N		> 100 µM	> 100 µM	> 100 µM	> 100 µM	> 100 µM	> 100 µM	57.4 µM	> 100 µM	> 100 µM
C=C([C@@]1(O)C[C@H]2[C@H](CCC2(OC)OC)[C@@H]2c3ccccc3O[C@@H]21)[Si](C)(C)C	98.6 µM	> 100 µM	> 100 µM			> 100 µM	> 100 µM	> 100 µM	> 100 µM	> 100 µM
COc1ccc(N2C(=O)CSC2c2c[nH]c3ccccc23)cc1 (stereo unspecified)	> 100 µM	> 100 µM	> 100 µM		> 100 µM	> 100 µM	> 100 µM			
CC(C)CC(O)P(=O)(O)O (stereo unspecified)	> 100 µM		> 100 µM			> 100 µM	> 100 µM	> 100 µM	> 100 µM	> 100 µM
CCN1CCC(O)(/C=C/c2ccc(C)cc2C)C(C(=O)/C=C/c2ccc(C)cc2C)C1 (stereo unspecified)	> 100 µM	8.98 µM		11.4 µM	7.86 µM	7.84 µM	14.7 µM	3.32 µM	22.7 µM	> 21.2 µM
CN1[C@@H]2C[C@@H](OC(=O)[C@H](CO)c3ccccc3)C[C@H]1[C@@H]1O[C@@H]12		> 100 µM	> 100 µM	> 100 µM	> 100 µM	> 100 µM	> 100 µM	> 100 µM	> 100 µM	> 100 µM
OCc1ccc(C2CC(c3ccco3)=NN2c2ccccc2)o1 (stereo unspecified)	> 100 µM	> 100 µM	> 100 µM	> 100 µM	> 100 µM	> 100 µM	> 100 µM	> 100 µM		> 100 µM
Cc1ccc(S(=O)(=O)NC(=O)N[C@@H](Cc2cnc[nH]2)C(=O)O)cc1	> 100 µM	> 100 µM	> 100 µM	> 100 µM	> 100 µM		> 100 µM	> 100 µM		> 100 µM
COc1c(C(C)C)cc2c3c1OC(=O)[C@@]31CCCC(C)(C)C1CC2 (stereo partly specified)	37.4 µM	> 100 µM		98.5 µM	89.9 µM	83.3 µM	> 100 µM	> 100 µM		59.8 µM
O=C(CN(c1ccccc1)c1ccccc1)n1nnc2ccccc21	> 100 µM	> 100 µM		> 100 µM	> 100 µM	> 100 µM	> 100 µM	> 100 µM		> 100 µM
CCC(=O)ONC(=O)Cn1ccc([N+](=O)[O-])n1	> 100 µM	> 100 µM	> 100 µM	> 100 µM	> 100 µM	> 100 µM	> 100 µM	> 100 µM		> 100 µM
